Structures are written as SMILES. Bounds are passed on as bounds.

This test concerns the target T1, recombinant human 11 β-HSD1 (Homo sapiens, UniProt P28845).
T1 construct: made in house; host or cells: E. coli
The test can be described thus: 11 β-HSD1 SPA Assay (Scintillation Proximity Assay). Type of test: biochemical. Here is the method:
(§1) Inhibition of 11 βHSD1 by test compounds was assessed in vitro by a Scintillation Proximity Assay (SPA). The assay was carried out in a 384-well assay plate in a total well volume of 26 μl and contained a mixture of tritiated cortisone substrate (40 nM), NADPH cofactor (1 mM), inhibitor in serial dilutions ([…] to 10 μM), and purified E. coli-expressed recombinant human 11 βHSD1 (30-100 nM) in assay buffer (50 mM HEPES, 100 mM KCl, 5 mM NaCl, and 2 mM MgCl2, pH7.4). Following mixing, the plate was incubated for 2 hours at room temperature. Reactions were stopped by addition of 30 μl of protein A YSi SPA beads (10 mg/ml) that had been pre-incubated with glycyrrhetinic acid (1 mM) and a monoclonal cortisol antibody (3 μg/ml). The plate was then incubated overnight at room temperature prior to reading on a Microbeta counter. Percent inhibition of each compound was calculated based on the background and the maximal signals. Wells that contained substrate without compound or enzyme were used as the background signal, while the wells that contained substrate and enzyme without any compound were used as the maximal signal. The calculation of the IC50 values for the inhibitors was performed by Activity Base.
as §1, with “β-HSD1” for “βHSD1”

T1 sequence (P28845 whole entry): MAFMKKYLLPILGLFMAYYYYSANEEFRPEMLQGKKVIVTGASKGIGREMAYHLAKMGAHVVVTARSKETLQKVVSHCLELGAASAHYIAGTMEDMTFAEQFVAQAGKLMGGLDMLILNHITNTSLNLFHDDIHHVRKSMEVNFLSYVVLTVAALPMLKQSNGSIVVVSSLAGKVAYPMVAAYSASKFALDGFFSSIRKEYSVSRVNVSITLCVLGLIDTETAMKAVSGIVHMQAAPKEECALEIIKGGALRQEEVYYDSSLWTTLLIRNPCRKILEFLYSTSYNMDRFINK

One may read the IC50 as the concentration that inhibits the measured activity by half. As to `CC(C)(Oc1ccccc1Cl)C(=O)N[C@H]1C[C@H]2CC[C@@H](C1)N2c1ccc(C(=O)NCC(F)(F)F)cn1` [Example 29, 6-[3-endo-({2-[(2-chlorophenyl)oxy]-2-methylpropanoyl}amino)-8-azabicyclo[3.2.1]oct-8-yl]-N-(2,2,2-trifluoroethyl)pyridine-3-carboxamide], the IC50 was less than 200 nM.

With `CC(C)NC(=O)c1ccc(N2[C@@H]3CC[C@H]2C[C@@H](NC(=O)C(C)(C)Oc2ccc(Cl)cc2)C3)nc1` [Example 30, 6-[3-endo-({2-[(4-chlorophenyl)oxy]-2-methylpropanoyl}amino)-8-azabicyclo[3.2.1]oct-8-yl]-N-(1-methylethyl)pyridine 3-carboxamide], the IC50 is less than 200 nM. Then `CC(C)(Oc1ccc(Cl)cc1Cl)C(=O)N[C@H]1C[C@H]2CC[C@@H](C1)N2c1ccc(C(=O)NC2CC2)cn1` [Example 31, N-cyclopropyl-6-[3-endo-({2-[(2,4-dichlorophenyl)oxy]-2-methylpropanoyl}amino)-8-azabicyclo[3.2.1]oct-8-yl]pyridine-3-carboxamide], with less than 200 nM.

As to `CC(C)(Oc1ccc(Cl)cc1)C(=O)N[C@H]1C[C@H]2CC[C@@H](C1)N2c1ccc(C#N)cn1` [Example 32, 2-[(4-chlorophenyl)oxy]-N-[8-(5-cyanopyridin-2-yl)-8-azabicyclo[3.2.1]oct-3-endo-yl]-2-methylpropanamide], the IC50 is less than 200 nM. Take `CC(C)(Oc1ccc(F)c(F)c1)C(=O)N[C@H]1C[C@H]2CC[C@@H](C1)N2c1ccc(C(=O)NC2CC2)cn1` [Example 33, N-cyclopropyl-6-[3-endo-({2-[(3,4-difluorophenyl)oxy]-2-methylpropanoyl}amino)-8-azabicyclo[3.2.1]oct-8-yl]pyridine-3-carboxamide]: the IC50 was less than 200 nM. `CC(C)(C(=O)N[C@H]1C[C@H]2CC[C@@H](C1)N2c1ccc(C(=O)NC2CC2)cn1)c1ccccc1Cl` [Example 34, 6-(3-endo-{[2-(2-chlorophenyl)-2-methylpropanoyl]amino}-8-azabicyclo[3.2.1]oct-8-yl)-N-cyclopropylpyridine-3-carboxamide]: the IC50 was less than 200 nM. `CC(C)(Oc1ccc(F)cc1F)C(=O)N[C@H]1C[C@H]2CC[C@@H](C1)N2c1ccc(C(=O)NC2CC2)cn1` [Example 35, N-cyclopropyl-6-[3-endo-({2-[(2,4-difluorophenyl)oxy]-2-methylpropanoyl}amino)-8-azabicyclo[3.2.1]oct-8-yl]pyridine-3-carboxamide]: the IC50 was less than 200 nM. Under `CC(C)(Oc1ccc(Cl)cc1)C(=O)N[C@H]1C[C@H]2CC[C@@H](C1)N2c1ncc(C(=O)NC2CC2)cn1` [Example 36, 2-[3-endo-({2-[(4-chlorophenyl)oxy]-2-methylpropanoyl}amino)-8-azabicyclo[3.2.1]oct-8-yl]-N-cyclopropylpyrimidine-5-carboxamide] stands less than 200 nM; under `CC(C)(Oc1ccc(C(F)(F)F)cc1)C(=O)N[C@H]1C[C@H]2CC[C@@H](C1)N2c1ccc(C(=O)NC2CC2)cn1` [Example 37, N-cyclopropyl-6-{3-endo-[(2-methyl-2-{[4-(trifluoromethyl)phenyl]oxy}propanoyl)amino]-8-azabicyclo[3.2.1]oct-8-yl}pyridine-3-carboxamide], less than 200 nM; under `CC(C)(Oc1ccc(C#N)cc1)C(=O)N[C@H]1C[C@H]2CC[C@@H](C1)N2c1ccc(C(=O)NC2CC2)cn1` [Example 38, 6-[3-endo-({2-[(4-cyanophenyl)oxy]-2-methylpropanoyl}amino)-8-azabicyclo[3.2.1]oct-8-yl]-N-cyclopropylpyridine-3-carboxamide], less than 200 nM. With `O=C(NC1CC1)c1ccc(N2[C@@H]3CC[C@H]2C[C@@H](NC(=O)C2(c4cccc(F)c4)CC2)C3)nc1` [Example 39, N-cyclopropyl-6-[3-endo-({[1-(3-fluorophenyl)cyclopropyl]carbonyl}amino)-8-azabicyclo[3.2.1]oct-8-yl]pyridine-3-carboxamide], the IC50 is less than 200 nM. Then `Cc1cc(C(=O)NC2CC2)cnc1N1[C@@H]2CC[C@H]1C[C@@H](NC(=O)C(C)(C)Oc1ccc(Cl)cc1)C2` [Example 40, 6-[3-endo-({2-[(4-chlorophenyl)oxy]-2-methylpropanoyl}amino)-8-azabicyclo[3.2.1]oct-8-yl]-N-cyclopropyl-5-methylpyridine-3-carboxamide], with less than 200 nM; and `CC(C)(Oc1ccc(Cl)cc1F)C(=O)N[C@H]1C[C@H]2CC[C@@H](C1)N2c1ccc(C(=O)NC2CC2)cn1` [Example 41, 6-[3-endo-({2-[(4-chloro-2-fluorophenyl)oxy]-2-methylpropanoyl}amino)-8-azabicyclo[3.2.1]oct-8-yl]-N-cyclopropylpyridine-3-carboxamide], with less than 200 nM. Then `CC(C)(Oc1ccc(Cl)c(Cl)c1)C(=O)N[C@H]1C[C@H]2CC[C@@H](C1)N2c1ccc(C(=O)NC2CC2)cn1` [Example 42, N-cyclopropyl-6-[3-endo-({2-[(3,4-dichlorophenyl)oxy]-2-methylpropanoyl}amino)-8-azabicyclo[3.2.1]oct-8-yl]pyridine-3-carboxamide], with less than 200 nM; and `CC(C)(Oc1ccc(Cl)c(F)c1)C(=O)N[C@H]1C[C@H]2CC[C@@H](C1)N2c1ccc(C(=O)NC2CC2)cn1` [Example 43, 6-[3-endo-({2-[(4-chloro-3-fluorophenyl)oxy]-2-methylpropanoyl}amino)-8-azabicyclo[3.2.1]oct-8-yl]-N-cyclopropylpyridine-3-carboxamide], with less than 200 nM; and `COc1ccc(OC(C)(C)C(=O)N[C@H]2C[C@H]3CC[C@@H](C2)N3c2ccc(C(=O)NC3CC3)cn2)cc1` [Example 44, N-cyclopropyl-6-{3-endo-[(2-methyl-2-{[4-(methyloxy)phenyl]oxy}pro-panoyl)amino]-8-azabicyclo[3.2.1]oct-8-yl}pyridine-3-carboxamide], with less than 200 nM. Under `O=C(NC1CC1)c1ccc(N2[C@@H]3CC[C@H]2C[C@@H](NC(=O)C2(Oc4ccccc4)CC2)C3)nc1` [Example 45, N-cyclopropyl-6-[3-endo-({[1-(phenyloxy)cyclopropyl]carbonyl}amino)-8-azabicyclo[3.2.1]oct-8-yl]pyridine-3-carboxamide] stands less than 200 nM; under `O=C(NC1CC1)c1ccc(N2[C@@H]3CC[C@H]2C[C@@H](NC(=O)C2(Oc4ccccc4)CCC2)C3)nc1` [Example 46, N-cyclopropyl-6-[3-endo-({[1-(phenyloxy)cyclobutyl]carbonyl}amino)-8-azabicyclo[3.2.1]oct-8-yl]pyridine-3-carboxamide], less than 200 nM. For the compound `O=C(NC1CC1)c1ccc(N2[C@@H]3CC[C@H]2C[C@@H](NC(=O)C2(Oc4ccc(Cl)cc4)CCC2)C3)nc1` [Example 47, 6-{3-endo-[({1-[(4-chlorophenyl)oxy]cyclobutyl}carbonyl)amino]-8-azabicyclo[3.2.1]oct-8-yl}-N-cyclopropylpyridine-3-carboxamide], the IC50 is less than 200 nM. With `CC(Oc1ccccc1)C(=O)N[C@H]1C[C@H]2CC[C@@H](C1)N2c1ccc(C(=O)NC2CC2)cn1` (stereo partly drawn) [Example 48, N-cyclopropyl-6-(3-endo-{[2-(phenyloxy)propanoyl]amino}-8-azabicycio[3.2.1]oct-8-yl)pyridine-3-carboxamide], the IC50 was less than 2000 nM.

Turning to `CC(Oc1ccc(Cl)cc1)C(=O)N[C@H]1C[C@H]2CC[C@@H](C1)N2c1ccc(C(=O)NC2CC2)cn1` (stereo partly drawn) [Example 49, 6-[3-endo-({2-[(4-chlorophenyl)oxy]propanoyl}amino)-8-azabicyclo[3.2.1]oct-8-yl]-N-cyclopropylpyridine-3-carboxamide], the IC50 is less than 2000 nM. Then `O=C(NC1CC1)c1ccc(N2[C@@H]3CC[C@H]2C[C@@H](NC(=O)C2(c4ccc(Cl)cc4)CCC2)C3)nc1` [Example 50, 6-[3-endo-({[1-(4-chlorophenyl)cyclobutyl]carbonyl}amino)-8-azabicyclo[3.2.1]oct-8-yl]-N-cyclopropylpyridine-3-carboxamide], with less than 200 nM; and `Cc1nc(N2[C@@H]3CC[C@H]2C[C@@H](NC(=O)C(C)(C)Oc2ccc(Cl)cc2)C3)ccc1C(=O)NC1CC1` [Example 51, 6-[3-endo-({2-[(4-chlorophenyl)oxy]-2-methylpropanoyl}amino)-8-azabicyclo[3.2.1]oct-8-yl]-N-cyclopropyl-2-methylpyridine-3-carboxamide], with less than 2000 nM.

Values taken from patent publication US8163771B2, “11 β-HSD1 modulators” (Exelixis, Inc., priority 2008, dated 2012).
